Earlier results in US5162573A, “Valproic and (E)-2-valproenoic acid derivatives, and pharmaceutical compositions therefrom” (Chiesi Farmaceutici S.p.A., priority 1986, dated 1992).

Legend:
[1] = not given; remark: listed apart in the source
[2] = in comparison with valproic acid
[3] = oral administration of equimolecular doses, in comparison with valproic acid

Structure (SMILES) | half life in man | teratogenic effects ([1]; in vivo) | anticonvulsivant activity, potency and duration of action [2] | toxic effects ([1]; in comparison with valproic acid) | hepatic tolerability / hepatic reactions ([1]; in vivo) | hepatic concentration [3]
CCCC(CCC)C(=O)O [valproic acid, 2-propyl-2-pentanoic acid] | 9 to 10 h | teratogenic effects | – | – | – | –
CC/C=C(\CCC)C(=O)O [valproenoic acid, (E)-2-propyl-2-pentenoic acid] | 12.5 h | totally devoid of teratogenic effects | a wide spectrum anticonvulsivant activity, a potency and a duration of action comparable to those of valproic acid | remarkably reduced toxic effects | much better tolerated at hepatic level | remarkably reduced hepatic concentration in comparison with valproic acid
